Source: US20050282755A1, “Compositions having antimicrobial activity and uses thereof” (priority 2004, published 2005)
Values after ≈ are worked out from the molar mass of the structure shown. Non-standard residues stand in square brackets, D forms with d. Residues, ends and D or L forms follow the SMILES beside them. *: point of attachment. Lauroyl = CCCCCCCCCCCC(=O)*

Legend:
Format in all cases: cell-based
[1] = test system: Staphylococcus aureus ATCC 29213; experiment: MIC, NCCLS M7-A6 broth microdilution, cation-adjusted Mueller Hinton broth (Table 9, no superscript); conditions: ATCC 29213
Method in brief: (§1)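 Log-phase bacteria were added to wells containing peptide in cation-adjusted Mueller Hinton broth at a final 5×10^5 to 1×10^6 CFU/milliliter. Plates then sat overnight at 37° C. Wells were scored visually for turbidity against a peptide-free control.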

[2] = test system: Salmonella dublin (Lane); experiment: MIC, NCCLS M7-A6 broth microdilution (Table 9, no superscript)
Method in brief: as §1

[3] = test system: Candida albicans ATCC 18804; experiment: MIC in yeasts, NCCLS M27-A2 broth microdilution, RPMI 1640 (Table 9, letter e); conditions: ATCC 18804
Method in brief: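 Plates incubated 24 to 48 hours at 37° C, with yeast seeded at 0.5×10^3–2.5×10^3 CFU/milliliter final in RPMI 1640 (glutamine, phenol red indicator). MIC was read as the lowest peptide concentration showing no visible growth.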

[4] = test system: Propionibacterium acnes ATCC 6919
Protocol: A second method that was used to determine the MIC in P. acnes for selected antimicrobial agents was a non-standard broth microdilution method that used an assay buffer composed of reinforced Clostridial broth. Briefly, a log-phase bacterial culture of P. acnes was used to inoculate wells of a 96-well plate so that the final inoculum for each well contained 5×10^5 to 1×10^6 CFU/milliliter. […] Plates were incubated for 48-72 hours at 37° C. in a GasPak anaerobic chamber. The lowest concentration of peptide that contained no visible growth as evidenced by a lack of turbidity when compared to the control (no peptide) was determined as the MIC. MIC values that utilized this method of MIC determination are indicated in Table 9 with a subscript letter “d.”

[5] = test system: Staphylococcus epidermidis ATCC 12228; experiment: MIC, NCCLS M7-A6 broth microdilution (Table 9, no superscript); conditions: ATCC 12228
Method in brief: as §1

[6] = test system: Escherichia coli ATCC 25922; experiment: as above; conditions: ATCC 25922
Method in brief: as §1

[7] = test system: Pseudomonas aeruginosa ATCC 27853; experiment: as above; conditions: ATCC 27853
Method in brief: as §1

| Compound | MIC S. aureus [1] | MIC S. dublin [2] | MIC C. albicans [3] | MIC P. acnes [4] | MIC S. epidermidis [5] | MIC E. coli [6] | MIC P. aeruginosa [7] |
| --- | --- | --- | --- | --- | --- | --- | --- |
| CCCCCCCCCCCC(=O)N[C@@H](C(=O)N[C@H](CCCNC(=N)N)C(=O)N[C@@H](C(=O)N[C@H](C)C(=O)N[C@H](CCCNC(=N)N)C(=O)N[C@@H](C(=O)NCC(=O)N[C@H](CCCNC(=N)N)C(=O)N[C@H](CO)C(=O)N[C@H](CCCNC(=N)N)C(=O)N[C@H](Cc1c[nH]c2ccccc12)C(=O)N[C@H](CCCNC(=N)N)C(=O)N[C@H](CC(=O)O)C(=O)N[C@H](Cc1c[nH]c2ccccc12)C(=O)N[C@H](C)C(=O)N[C@H](CCCNC(=N)N)C(=O)N[C@H](CC(N)=O)C(=O)N[C@H](Cc1ccccc1)C(=O)N[C@H](CCSC)C(=O)N[C@H](CCCNC(=N)N)C(N)=O)[C@H](C)O)C(C)C)[C@H](C)O [Peptide 77, Lauryl-trvartgrsrwrdwarnfmr-NH2] (Lauroyl-[dT][dR][dV][dA][dR][dT]G[dR][dS][dR][dW][dR][dD][dW][dA][dR][dN][dF][dM][dR]-NH2) | 16 µg/mL (≈ 5.8 µM) | 16 µg/mL (≈ 5.8 µM) | 8e ug/mL | 12.5 µg·days/mL | – | – | – |
| CSCC[C@H](NC(=O)[C@H](Cc1ccccc1)NC(=O)[C@H](CC(N)=O)NC(=O)[C@H](CCCNC(=N)N)NC(=O)[C@H](C)NC(=O)[C@@H](NC(=O)[C@H](CC(=O)O)NC(=O)[C@H](CCCNC(=N)N)NC(=O)[C@H](Cc1c[nH]c2ccccc12)NC(=O)[C@H](CCCNC(=N)N)NC(=O)[C@H](CO)NC(=O)[C@H](CCCNC(=N)N)NC(C)=O)C(C)C)C(=O)N[C@@H](CCCNC(=N)N)C(N)=O [Peptide 92, Ac-RSRWRDVARNFMR-NH2] (Ac-RSRWRDVARNFMR-NH2) | >64 µg/mL | >64 µg/mL | 8e ug/mL | 25 µg·days/mL | – | – | – |
| CCCCCCCCCCCC(=O)N[C@H](C(=O)N[C@@H](CCCNC(=N)N)C(=O)N[C@H](C(=O)N[C@@H](CO)C(=O)N[C@@H](CCCNC(=N)N)C(=O)N[C@H](C(=O)NCC(=O)N[C@@H](CCCNC(=N)N)C(=O)N[C@@H](CO)C(=O)N[C@@H](CCCNC(=N)N)C(=O)N[C@@H](Cc1c[nH]c2ccccc12)C(=O)N[C@@H](CCCNC(=N)N)C(=O)N[C@@H](CC(=O)O)C(=O)N[C@@H](Cc1c[nH]c2ccccc12)C(=O)N[C@@H](CO)C(=O)N[C@@H](CCCNC(=N)N)C(=O)N[C@@H](CC(N)=O)C(=O)N[C@@H](Cc1ccccc1)C(=O)N[C@@H](CCSC)C(=O)N[C@@H](CCCNC(=N)N)C(N)=O)[C@@H](C)O)C(C)C)[C@@H](C)O [Peptide 63] (Lauroyl-TRVSRTGRSRWRDWSRNFMR-NH2) | 8 µg/mL (≈ 2.87 µM) | 16 µg/mL (≈ 5.73 µM) | 16e ug/mL | 12.5 µg·days/mL | 2 µg/mL (≈ 0.716 µM) | 32 µg/mL (≈ 11.5 µM) | 64 µg/mL (≈ 22.9 µM) |
| CCCCCCCCCCCC(=O)N[C@H](C(=O)N[C@@H](CCCNC(=N)N)C(=O)N[C@H](C(=O)N[C@@H](C)C(=O)N[C@@H](CCCNC(=N)N)C(=O)N[C@H](C(=O)NCC(=O)N[C@@H](CCCNC(=N)N)C(=O)N[C@@H](CO)C(=O)N[C@@H](CCCNC(=N)N)C(=O)N[C@@H](Cc1c[nH]c2ccccc12)C(=O)N[C@@H](CCCNC(=N)N)C(=O)N[C@@H](CC(=O)O)C(=O)N[C@H](C(=O)N[C@@H](C)C(=O)N[C@@H](CCCNC(=N)N)C(=O)N[C@@H](CC(N)=O)C(=O)N[C@@H](Cc1ccccc1)C(=O)N[C@@H](CCSC)C(=O)N[C@@H](CCCNC(=N)N)C(N)=O)C(C)C)[C@@H](C)O)C(C)C)[C@@H](C)O [Peptide 69] (Lauroyl-TRVARTGRSRWRDVARNFMR-NH2) | 4 µg/mL (≈ 1.5 µM) | 16 µg/mL (≈ 5.99 µM) | 16e ug/mL | 12.5 µg·days/mL | – | – | – |
| CSCC[C@H](NC(=O)[C@H](Cc1ccccc1)NC(=O)[C@H](CC(N)=O)NC(=O)[C@H](CCCNC(=N)N)NC(=O)[C@H](CO)NC(=O)[C@H](Cc1c[nH]c2ccccc12)NC(=O)[C@H](CC(=O)O)NC(=O)[C@H](CCCNC(=N)N)NC(=O)[C@H](Cc1c[nH]c2ccccc12)NC(=O)[C@H](CCCNC(=N)N)NC(=O)[C@H](CO)NC(=O)[C@H](CCCNC(=N)N)NC(C)=O)C(=O)N[C@@H](CCCNC(=N)N)C(N)=O [Peptide 91, Ac-RSRWRDWSRNFMR-NH2] (Ac-RSRWRDWSRNFMR-NH2) | >64 µg/mL | >64 µg/mL | 16e ug/mL | 25 µg·days/mL | – | – | – |
| CSCC[C@@H](NC(=O)[C@@H](Cc1ccccc1)NC(=O)[C@@H](CC(N)=O)NC(=O)[C@@H](CCCNC(=N)N)NC(=O)[C@@H](C)NC(=O)[C@@H](Cc1c[nH]c2ccccc12)NC(=O)[C@@H](CC(=O)O)NC(=O)[C@@H](CCCNC(=N)N)NC(=O)[C@@H](Cc1c[nH]c2ccccc12)NC(=O)[C@@H](CCCNC(=N)N)NC(=O)[C@@H](CO)NC(=O)[C@@H](CCCNC(=N)N)NC(=O)CNC(=O)[C@H](NC(=O)[C@@H](CCCNC(=N)N)NC(=O)[C@@H](C)NC(=O)[C@H](NC(=O)[C@@H](CCCNC(=N)N)NC(=O)[C@H](NC(C)=O)[C@H](C)O)C(C)C)[C@H](C)O)C(=O)N[C@H](CCCNC(=N)N)C(N)=O [Peptide 56, Ac-trvartgrsrwrdwarnfmr-NH2] (Ac-[dT][dR][dV][dA][dR][dT]G[dR][dS][dR][dW][dR][dD][dW][dA][dR][dN][dF][dM][dR]-NH2) | >64 µg/mL | 8 µg/mL (≈ 3.05 µM) | 64e ug/mL | 6 µg·days/mL | 2 µg/mL (≈ 0.763 µM) | 4 µg/mL (≈ 1.53 µM) | >64 µg/mL |
| CSCC[C@H](NC(=O)[C@H](Cc1ccccc1)NC(=O)[C@H](CC(N)=O)NC(=O)[C@H](CCCNC(=N)N)NC(=O)[C@H](C)NC(=O)[C@@H](NC(=O)[C@H](CC(=O)O)NC(=O)[C@H](CCCNC(=N)N)NC(=O)[C@H](Cc1c[nH]c2ccccc12)NC(=O)[C@H](CCCNC(=N)N)NC(=O)[C@H](CO)NC(=O)[C@H](CCCNC(=N)N)NC(=O)CNC(=O)[C@@H](NC(=O)[C@H](CCCNC(=N)N)NC(=O)[C@H](C)NC(=O)[C@@H](NC(=O)[C@H](CCCNC(=N)N)NC(=O)[C@@H](NC(C)=O)[C@@H](C)O)C(C)C)[C@@H](C)O)C(C)C)C(=O)N[C@@H](CCCNC(=N)N)C(N)=O [Peptide 38] (Ac-TRVARTGRSRWRDVARNFMR-NH2) | >64 µg/mL | >64 µg/mL | 16e ug/mL | 25 µg·days/mL | – | – | – |
| CCCCCCCCCCCC(=O)N[C@H](CCCNC(=N)N)C(=O)N[C@H](CO)C(=O)N[C@H](CCCNC(=N)N)C(=O)N[C@H](Cc1c[nH]c2ccccc12)C(=O)N[C@H](CCCNC(=N)N)C(=O)N[C@H](CC(=O)O)C(=O)N[C@H](Cc1c[nH]c2ccccc12)C(=O)N[C@H](CO)C(=O)N[C@H](CCCNC(=N)N)C(=O)N[C@H](CC(N)=O)C(=O)N[C@H](Cc1ccccc1)C(=O)N[C@H](CCSC)C(=O)N[C@H](CCCNC(=N)N)C(N)=O [Peptide 89, Lauryl-rsrwrdwsrnfmr-NH2] (Lauroyl-[dR][dS][dR][dW][dR][dD][dW][dS][dR][dN][dF][dM][dR]-NH2) | 4 µg/mL (≈ 1.97 µM) | 4 µg/mL (≈ 1.97 µM) | 32e ug/mL | 25 µg·days/mL | – | – | – |
